According to patent US8999982B2, “Pharmaceutically active compounds as Axl inhibitors” (Lead Discovery Center GmbH, priority 2010, dated 2015):
pIC50: −log10 of the molar value.

Key:
Axl [1] = biological target: T1, Axl (Homo sapiens (Human), UniProt P30530); test: Cellular Axl phosphorylation assay; format: cell-based; conditions: HEK293 cells transfected with Axl cDNA, 1 hour incubation
Protocol: 3. Cellular Axl Phosphorylation Assay:
HEK293 embryonal kidney fibroblasts were transfected in 96 wells with a plasmid containing Axl cDNA. As transfection reagent Superfect (Qiagen) was used. Transfection of the sole vector backbone served as negative control of Axl expression. After overnight incubation the cellular supernatant was replaced with fresh medium. On the following day the Axl-expressing cells were incubated for 1 hour with a compound according to formula (I) at the suitable concentrations. […] The mesoscale technology was used for quantification.

Axl [2] = biological target: T1, Axl; test: Axl binding assay
Protocol: Binding of the tracer to the kinase is detected using an EU-labeled anti-tag antibody. […] Binding of an inhibitor to the kinase competes for binding with the tracer, resulting in a loss of FRET-signal. At first a compound according to formula (I) was diluted in 20 mM Hepes pH 8.0, 1 mM DTT, 10 mM MgCl2 and 0.01% Brij35.

T1 sequence (P30530 26-894): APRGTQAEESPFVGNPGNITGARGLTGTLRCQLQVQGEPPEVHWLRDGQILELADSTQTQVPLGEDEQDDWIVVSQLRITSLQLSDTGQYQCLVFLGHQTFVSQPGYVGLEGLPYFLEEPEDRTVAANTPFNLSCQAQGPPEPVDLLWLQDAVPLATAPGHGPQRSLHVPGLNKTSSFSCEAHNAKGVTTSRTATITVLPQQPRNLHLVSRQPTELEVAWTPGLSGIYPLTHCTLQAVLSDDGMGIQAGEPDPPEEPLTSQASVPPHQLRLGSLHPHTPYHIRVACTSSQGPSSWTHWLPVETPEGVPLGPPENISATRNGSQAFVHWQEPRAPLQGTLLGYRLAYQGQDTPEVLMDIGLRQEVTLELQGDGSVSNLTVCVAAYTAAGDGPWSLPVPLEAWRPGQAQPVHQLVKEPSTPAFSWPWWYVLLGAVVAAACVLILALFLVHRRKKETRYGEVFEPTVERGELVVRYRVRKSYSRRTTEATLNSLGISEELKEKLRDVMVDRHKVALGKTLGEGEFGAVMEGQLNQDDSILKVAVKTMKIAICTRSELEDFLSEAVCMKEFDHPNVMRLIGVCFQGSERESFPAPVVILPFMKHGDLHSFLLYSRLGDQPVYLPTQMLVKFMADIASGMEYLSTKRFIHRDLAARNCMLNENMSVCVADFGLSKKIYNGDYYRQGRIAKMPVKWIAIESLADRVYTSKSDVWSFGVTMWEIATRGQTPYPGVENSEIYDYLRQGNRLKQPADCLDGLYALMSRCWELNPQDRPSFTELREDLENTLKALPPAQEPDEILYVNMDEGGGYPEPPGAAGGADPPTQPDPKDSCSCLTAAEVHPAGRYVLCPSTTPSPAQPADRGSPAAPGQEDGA

Row | SMILES | pIC50 (Axl [1]) | pIC50 (Axl [2])
1 | CCOc1cn(-c2ccc(F)cc2C)nc1C(=O)Nc1ccc(Oc2ccnc3cc(OC)c(OC)cc23)cc1 [Example 27, N-[4-[(6,7-dimethoxy-4-quinolyl)oxy]phenyl]-4-ethoxy-1-(4-fluoro-2-methyl-phenyl)pyrazole-3-carboxamide] | > 6.30 | > 6.30
2 | CCOc1cn(-c2ccc(F)cc2)nc1C(=O)Nc1ccc(Oc2ccnc3cc(OC)c(OC)cc23)c(C)c1 [Example 28, N-[4-[(6,7-dimethoxy-4-quinolyl)oxy]-3-methyl-phenyl]-4-ethoxy-1-(4-fluorophenyl)pyrazole-3-carboxamide] | > 6.30 | > 6.30
3 | COc1cc2nccc(Oc3ccc(NC(=O)c4nn(-c5ccc(F)cc5)cc4OC(C)C)cc3C)c2cc1OC [Example 29, N-[4-[(6,7-dimethoxy-4-quinolyl)oxy]-3-methyl-phenyl]-1-(4-fluorophenyl)-4-isopropoxy-pyrazole-3-carboxamide] | > 6.30 | > 6.30
4 | COc1cc2nccc(Oc3ccc(NC(=O)c4nn(-c5ccc(F)cc5)cc4OCC4CC4)cc3C)c2cc1OC [Example 30, 4-(cyclopropylmethoxy)-N-[4-[(6,7-dimethoxy-4-quinolyl)oxy]-3-methyl-phenyl]-1-(4-fluorophenyl)pyrazole-3-carboxamide] | > 6.30 | > 6.30
5 | CCOc1cn(-c2ccc(F)cc2C)nc1C(=O)Nc1ccc(Oc2ccnc3cc(OC)c(OC)cc23)c(C)c1 [Example 31, N-[4-[(6,7-dimethoxy-4-quinolyl)oxy]-3-methyl-phenyl]-4-ethoxy-1-(4-fluoro-2-methyl-phenyl)pyrazole-3-carboxamide] | > 6.30 | > 6.30
6 | CCOc1cn(-c2ccc(F)cc2)nc1C(=O)Nc1ccc(Oc2ccnc3cc(OC)c(OC)cc23)c(Cl)c1 [Example 32, N-[3-chloro-4-[(6,7-dimethoxy-4-quinolyl)oxy]phenyl]-4-ethoxy-1-(4-fluorophenyl)pyrazole-3-carboxamide] | > 6.30 | > 6.30
7 | COc1cc2nccc(Oc3ccc(NC(=O)c4nn(-c5ccc(F)cc5)cc4OC(C)C)cc3Cl)c2cc1OC [Example 33, N-[3-chloro-4-[(6,7-dimethoxy-4-quinolyl)oxy]phenyl]-1-(4-fluorophenyl)-4-isopropoxy-pyrazole-3-carboxamide] | > 6.30 | > 6.30
8 | COc1cc2nccc(Oc3ccc(NC(=O)c4nn(-c5ccc(F)cc5)cc4OCC4CC4)cc3Cl)c2cc1OC [Example 34, N-[3-chloro-4-[(6,7-dimethoxy-4-quinolyl)oxy]phenyl]-4-(cyclopropylmethoxy)-1-(4-fluorophenyl)pyrazole-3-carboxamide] | > 6.30 | > 6.30
9 | CCOc1cn(-c2ccc(F)cc2C)nc1C(=O)Nc1ccc(Oc2ccnc3cc(OC)c(OC)cc23)c(Cl)c1 [Example 35, N-[3-chloro-4-[(6,7-dimethoxy-4-quinolyl)oxy]phenyl]-4-ethoxy-1-(4-fluoro-2-methyl-phenyl)pyrazole-3-carboxamide] | > 6.30 | > 6.30
10 | COc1cc2nccc(Oc3ccc(NC(=O)c4nn(-c5ccc(F)cc5)cc4CCN(C)C)cc3F)c2cc1OC [Example 36, N-(4-((6,7-dimethoxyquinolin-4-yl)oxy)-3-fluorophenyl)-4-(2-(dimethylamino)ethyl)-1-(4-fluorophenyl)-1H-pyrazole-3-carboxamide] | > 6.30 | > 6.30
11 | CCOc1cn(-c2ccc(F)cc2CCN(C)C)nc1C(=O)Nc1ccc(Oc2ccnc3cc(OC)c(OC)cc23)c(F)c1 [Example 37, N-[4-[(6,7-dimethoxy-4-quinolyl)oxy]-3-fluoro-phenyl]-1-[2-(2-dimethylaminoethyl)-4-fluoro-phenyl]-4-ethoxy-pyrazole-3-carboxamide] | > 6.30 | > 6.30
12 | COc1cc2c(Oc3ccc(NC(=O)c4csc(-c5ccccc5)n4)cc3F)ccnc2cc1OCCCN1CCOCC1 [Example 38, N-[3-fluoro-4-[[6-methoxy-7-(3-morpholinopropoxy)-4-quinolyl]oxy]phenyl]-2-phenyl-thiazole-4-carboxamide] | > 6.30 | > 6.30

Other lines, results leading:

Row | pIC50 (Axl [1]) | pIC50 (Axl [2]) | SMILES
13 | > 6.30 | 5.30 to 6.30 | COc1cc2c(Oc3ccc(NC(=O)c4nn(C)cc4Br)cc3F)ccnc2cc1OCCCN1CCOCC1 [Example 39, 4-bromo-N-[3-fluoro-4-[[6-methoxy-7-(3-morpholinopropoxy)-4-quinolyl]oxy]phenyl]-1-methyl-pyrazole-3-carboxamide]
14 | > 6.30 | 5.30 to 6.30 | COc1cc2c(Oc3ccc(NC(=O)c4ccn(C)n4)cc3F)ccnc2cc1OCCCN1CCOCC1 [Example 40, N-[3-fluoro-4-[[6-methoxy-7-(3-morpholinopropoxy)-4-quinolyl]oxy]phenyl]-1-methyl-pyrazole-3-carboxamide]
15 | > 6.30 | > 6.30 | COc1cc2c(Oc3ccc(NC(=O)c4cc(C)n(C(C)(C)C)n4)cc3F)ccnc2cc1OCCCN1CCOCC1 [Example 41, 1-tert-butyl-N-[3-fluoro-4-[[6-methoxy-7-(3-morpholinopropoxy)-4-quinolyl]oxy]phenyl]-5-methyl-pyrazole-3-carboxamide]
16 | > 6.30 | > 6.30 | COc1cc2c(Oc3ccc(NC(=O)c4cc(C)n(C)n4)cc3F)ccnc2cc1OCCCN1CCOCC1 [Example 42, N-[3-fluoro-4-[[6-methoxy-7-(3-morpholinopropoxy)-4-quinolyl]oxy]phenyl]-1,5-dimethyl-pyrazole-3-carboxamide]
17 | > 6.30 | > 6.30 | CCOc1cn(-c2ccc(F)cc2C)nc1C(=O)Nc1ccc(Oc2ccnc3cc(OCCCN4CCOCC4)c(OC)cc23)c(F)c1 [Example 43, 4-ethoxy-N-[3-fluoro-4-[[6-methoxy-7-(3-morpholinopropoxy)-4-quinolyl]oxy]phenyl]-1-(4-fluoro-2-methyl-phenyl)pyrazole-3-carboxamide]
18 | > 6.30 | > 6.30 | COc1cc2c(Oc3ccc(NC(=O)c4nn(-c5ccc(F)cc5)cc4OC)cc3F)ccnc2cc1OCCCN1CCOCC1 [Example 44, N-[3-fluoro-4-[[6-methoxy-7-(3-morpholinopropoxy)-4-quinolyl]oxy]phenyl]-1-(4-fluorophenyl)-4-methoxy-pyrazole-3-carboxamide]
19 | > 6.30 | > 6.30 | COc1cc2c(Oc3ccc(NC(=O)c4nn(-c5ccc(F)cc5)cc4OC(C)C)cc3F)ccnc2cc1OCCCN1CCOCC1 [Example 45, N-[3-fluoro-4-[[6-methoxy-7-(3-morpholinopropoxy)-4-quinolyl]oxy]phenyl]-1-(4-fluorophenyl)-4-isopropoxy-pyrazole-3-carboxamide]
20 | > 6.30 | > 6.30 | COc1cc2c(Oc3ccc(NC(=O)c4nn(-c5ccc(F)cc5)cc4OCC4CC4)cc3F)ccnc2cc1OCCCN1CCOCC1 [Example 46, 4-(cyclopropylmethoxy)-N-[3-fluoro-4-[[6-methoxy-7-(3-morpholinopropoxy)-4-quinolyl]oxy]phenyl]-1-(4-fluorophenyl)pyrazole-3-carboxamide]
21 | > 6.30 | > 6.30 | CCOc1cn(-c2ccc(F)cc2Cl)nc1C(=O)Nc1ccc(Oc2ccnc3cc(OCCCN4CCOCC4)c(OC)cc23)c(F)c1 [Example 47, 1-(2-chloro-4-fluoro-phenyl)-4-ethoxy-N-[3-fluoro-4-[[6-methoxy-7-(3-morpholinopropoxy)-4-quinolyl]oxy]phenyl]pyrazole-3-carboxamide]
22 | > 6.30 | > 6.30 | COc1cc2c(Oc3ccc(NC(=O)c4nn(-c5ccc(F)cc5)cc4OCCN(C)C)cc3F)ccnc2cc1OCCCN1CCOCC1 [Example 48, 4-(2-dimethylaminoethoxy)-N-[3-fluoro-4-[[6-methoxy-7-(3-morpholinopropoxy)-4-quinolyl]oxy]phenyl]-1-(4-fluorophenyl)pyrazole-3-carboxamide]
23 | > 6.30 | > 6.30 | CCOc1cn(-c2ccc(F)cc2Br)nc1C(=O)Nc1ccc(Oc2ccnc3cc(OCCCN4CCOCC4)c(OC)cc23)c(F)c1 [Example 49, 1-(2-bromo-4-fluoro-phenyl)-4-ethoxy-N-[3-fluoro-4-[[6-methoxy-7-(3-morpholinopropoxy)-4-quinolyl]oxy]phenyl]pyrazole-3-carboxamide]
24 | > 6.30 | > 6.30 | COCCOc1cn(-c2ccc(F)cc2)nc1C(=O)Nc1ccc(Oc2ccnc3cc(OCCCN4CCOCC4)c(OC)cc23)c(F)c1 [Example 50, N-[3-fluoro-4-[[6-methoxy-7-(3-morpholinopropoxy)-4-quinolyl]oxy]phenyl]-1-(4-fluorophenyl)-4-(2-methoxyethoxy)pyrazole-3-carboxamide]
25 | > 6.30 | > 6.30 | COc1cc2c(Oc3ccc(NC(=O)c4nn(-c5ccc(F)cc5)cc4OCc4ccccc4)cc3F)ccnc2cc1OCCCN1CCOCC1 [Example 51, 4-benzyloxy-N-[3-fluoro-4-[[6-methoxy-7-(3-morpholinopropoxy)-4-quinolyl]oxy]phenyl]-1-(4-fluorophenyl)pyrazole-3-carboxamide]
26 | > 6.30 | > 6.30 | COc1cc2c(Oc3ccc(NC(=O)c4nn(-c5ccc(F)cc5)cc4[N+](=O)[O-])cc3F)ccnc2cc1OCCCN1CCOCC1 [Example 52, N-[3-fluoro-4-[[6-methoxy-7-(3-morpholinopropoxy)-4-quinolyl]oxy]phenyl]-1-(4-fluorophenyl)-4-nitro-pyrazole-3-carboxamide]
27 | > 6.30 | > 6.30 | COc1cc2c(Oc3ccc(NC(=O)c4nn(-c5ccc(F)cc5)cc4N)cc3F)ccnc2cc1OCCCN1CCOCC1 [Example 53, 4-amino-N-[3-fluoro-4-[[6-methoxy-7-(3-morpholinopropoxy)-4-quinolyl]oxy]phenyl]-1-(4-fluorophenyl)pyrazole-3-carboxamide]
